Converted amounts (≈) assume the structure as drawn.
Columns and labels:
[1] = tested on: Escherichia coli ATCC 11 775; assay: serial dilution test in microtiter system (bacteriostasis, MIC); type: cell-based; details: ATCC11, liquid medium, 18 to 20 h at 37°C, read-out: MHK-Werte E.coli ATCC 11 755
Experimental: (§1) Für die Untersuchungen wurde die Methode des Reihenverdünnungstestes im Mikrotitersystem angewandt. Die Prüfung der Substanzen auf Bakteriostase erfolgte in flüssigem Medium. Es wurde die Bakteriostasewirkung bei folgenden Konzentrationen untersucht.
(§2) Es wurde ein Nährboden folgender Zusammensetzung benutzt: 10 g Pepton, 8 g Fleischextrakt-Oxoid, 3 g Natriumschlorid, 2 g sek. Natriumphosphat werden mit dest. Wasser auf 1000 ml aufgefüllt (pH 7,2-7,4). Lediglich bei der Testung gegen Streptokokken wurde 1% Glucose hinzugefügt. Das Alter der Primärkulturen betrug etwa 20 Stunden. Die Einstellung der Keimsuspension erfolgte am Photometer (nach "Eppendorf") (Reagenzglas-Durchmesser 14 mm, Filter 546 nm) anhand der Trübung einer Bariumsulfat-Vergleichssuspension, die durch eine Bariumsulfat-Aufschwemmung erzeugt wurde, welche durch die Zugabe von 3,0 ml 1%ige Bariumchloridlösung in 97 ml 1%ige Schwefelsäure entstand. Nach der Einstellung wurden Streptococcus Aronson im Verhältnis 1:15 und die übrigen Testkeime im Verhältnis 1:1500 mit einer Kochsalzlösung weiter verdünnt.
(§3) 16 mg der jeweiligen Substanz wurden in 10 ml-Meßkolben eingewogen und mit dem Lösungsmittel bis zur Marke aufgefüllt. Die weitere Verdünnungsreihe wurde mit destilliertem Wasser oder dem jeweiligen Lösungsmittel hergestellt.
(§4) Die Vertiefungen der Mikrotiterplatten wurden mit 0,2 ml Nährmedium, 0,01 ml der entsprechenden Substanzverdünnung und mit einem Tropfen Keimsuspension (0,01 ml) beschickt und 18 bis 20 Stunden bei 37°C bebrütet. Eine Lösungsmittelkontrolle wurde stets mitgeführt.
(§5) Die Ablesung wurde makroskopisch vorgenommen, wobei die jeweilige Grenkonzentration (= niedrigste noch bakteriostatisch wirksame Konzentration) ermittelt wurde.
(§6) Als Testorganismen wurden benützt: - Staphylococcus aureus SG 511, Escherichia coli ATCC 11 775, Pseudomonas aeruginosa Hamburgensis und Walter, Serratia marcescens ATCC 13 880, Klebsiella pneumoniae ATCC 10 031 und BC 6, Proteus mirabilis Hamburgensis, Proteus rettgeri BC 7 und Enterobacter cloacae ATCC 13 047.
(§7) In der folgenden Tabelle 2 sind die ermittelten minimalen Hemmkonzentrationen (MIC) für typische Vertreter der erfindungsgemäßen Verbindungen aufgeführt, wobei sich die Ziffern auf die Penicilline der Tabelle 1 Seite 18 beziehen.

[2] = tested on: Klebsiella pneumoniae ATCC 10 031; assay: as above; type: cell-based; details: ATCC10, liquid medium, 18 to 20 h at 37°C, read-out: MHK-Werte Kl. pneum. ATCC 10 031
Experimental: as §1, §2, §3, §4, §5, §6, §7

[3] = tested on: Pseudomonas aeruginosa Hamburgensis; assay: as above; type: cell-based; details: liquid medium, 18 to 20 h at 37°C, read-out: MHK-Werte Pseud. aerug. Hbg.
Experimental: as §1, §2, §3, §4, §5, §6, §7

[4] = tested on: Proteus rettgeri BC 7; assay: as above; type: cell-based; details: Providencia rettgeri, BC7; liquid medium, 18 to 20 h at 37°C; read-out: MHK-Werte Prot. rettg. BC 7
Experimental: as §1, §2, §3, §4, §5, §6, §7

[5] = tested on: Enterobacter cloacae ATCC 13 047; assay: as above; type: cell-based; details: ATCC13, liquid medium, 18 to 20 h at 37°C, read-out: MHK-Werte Eb. cloacae 13 047
Experimental: as §1, §2, §3, §4, §5, §6, §7

[6] = tested on: Klebsiella pneumoniae BC 6; assay: as above; type: cell-based; details: BC6, liquid medium, 18 to 20 h at 37°C, read-out: MHK-Werte Kl. pneum. BC 6
Experimental: as §1, §2, §3, §4, §5, §6, §7

[7] = tested on: Proteus mirabilis Hamburgensis; assay: as above; type: cell-based; details: liquid medium, 18 to 20 h at 37°C, read-out: MHK-Werte Prot. mir. Hbg.
Experimental: as §1, §2, §3, §4, §5, §6, §7

[8] = tested on: Serratia marcescens ATCC 13 880; assay: as above; type: cell-based; details: ATCC13, liquid medium, 18 to 20 h at 37°C, read-out: MHK-Werte Serr. marcesc. ATCC 13 880
Experimental: as §1, §2, §3, §4, §5, §6, §7

[9] = tested on: Pseudomonas aeruginosa Walter; assay: as above; type: cell-based; details: liquid medium, 18 to 20 h at 37°C, read-out: MHK-Werte Pseud. aerug. Walter
Experimental: as §1, §2, §3, §4, §5, §6, §7

[10] = tested on: Staphylococcus aureus SG 511; assay: as above; type: cell-based; details: SG511, liquid medium, 18 to 20 h at 37°C, read-out: MHK-Werte Staph. aureus SG 511
Experimental: as §1, §2, §3, §4, §5, §6, §7

[11] = tested on: E.coli ATCC 11 775; assay: experimental intraperitoneal infection in mice, ED50 (survival); type: in vivo, Mäuse; details: Escherichia coli, ATCC 11 / ATCC 1175, sc, 168 h; female NMRI mice, i.p. infection, s.c. application, treated once, 7 days observation
Experimental: (§8) Eine Reihe der erfindungsgemäßen Verbindungen wurde in vivo bei experimentellen Infektionen an Mäusen untersucht. Man verwendete als pathogene Bakterien E.coli ATCC 11 775 und Pseudomonas aeruginosa Walter. Es wurde eine intraperitoneale Infektion mit 0,2 ml einer 5%igen Mucinsuspension der Bakterien gesetzt. Dies entspricht etwa 2x10^6 Keime E.coli bzw. 8x10^5 Keime Pseudomonas/Maus. Weibliche Mäuse vom Stamm NMRI wurden in Gruppen von jeweils 10 Tieren aufgeteilt, zwei Gruppen blieben unbehandelt, die restlichen Gruppen wurden mit verschiedenen Dosen der jeweiligen erfindungsgemäßen Penicilline zur Bestimmung der ED50 (Dosis, bei der 50 % der Tiere überleben) behandelt. Bei der E.coli-Infektion wurde einmal therapiert. Bei der Pseudomonas-Infektion wurde dreimal behandelt.
(§9) Der Beobachtungszeitraum betrug in beiden Fällen 7 Tage. Die Ergebnisse dieser Teste mit repräsentativen Vertretern der erfindungsgemäßen Penicilline sind in der Tabelle 3 dargestellt.

[12] = tested on: Pseudomonas aeruginosa Walter; assay: as above; type: in vivo, Mäuse; details: sc, 168 h, female NMRI mice, i.p. infection, s.c. application, treated three times, 7 days observation, read-out: ED50 Pseud. aerug. Walter
Experimental: as §8, §9

Compound | MIC [1] [µg/mL] | MIC [2] [µg/mL] | MIC [3] [µg/mL] | MIC [4] [µg/mL] | MIC [5] [µg/mL] | MIC [6] [µg/mL] | MIC [7] [µg/mL] | MIC [8] [µg/mL] | MIC [9] [µg/mL] | MIC [10] [µg/mL] | ED50 [11] [mg/kg] | ED50 [12] [mg/kg]
CC1(C)S[C@@H]2[C@H](NC(=O)[C@H](NC(=O)N3CCNC3=O)c3ccccc3)C(=O)N2[C@H]1C(=O)O [A, 6-{D-α'-[(2-Oxo-imidazolidin-1-yl)-carbonylamino]-4-phenylacetamido}-penicillansäure-Natriumsalz, reference compound] | 16 (≈ 34.7 µM) | 32 (≈ 69.3 µM) | 8 (≈ 17.3 µM) | 2 (≈ 4.33 µM) | 32 (≈ 69.3 µM) | 32 (≈ 69.3 µM) | 0.5 (≈ 1.08 µM) | 2 (≈ 4.33 µM) | 8 (≈ 17.3 µM) | 0.5 (≈ 1.08 µM) | > 100 | 225
CC1(C)S[C@@H]2[C@H](NC(=O)[C@H](NC(=O)N3CCN(S(C)(=O)=O)C3=O)c3ccccc3)C(=O)N2[C@H]1C(=O)O [B, Mezlocillin, reference compound] | 2 (≈ 3.71 µM) | 4 (≈ 7.41 µM) | 16 (≈ 29.7 µM) | 1 (≈ 1.85 µM) | 4 (≈ 7.41 µM) | 4 (≈ 7.41 µM) | 0.25 (≈ 0.463 µM) | 0.5 (≈ 0.927 µM) | 32 (≈ 59.3 µM) | 0.25 (≈ 0.463 µM) | > 100 | –
CC1(C)S[C@@H]2[C@H](NC(=O)[C@H](NC(=O)Nc3cnc(Nc4ccc(S(N)(=O)=O)cc4)nc3O)c3ccc(O)c(Cl)c3)C(=O)N2[C@H]1C(=O)O [Verbindung 4] | 0.25 (≈ 0.354 µM) | 2 (≈ 2.83 µM) | 2 (≈ 2.83 µM) | 0.5 (≈ 0.707 µM) | 1 (≈ 1.41 µM) | 2 (≈ 2.83 µM) | 0.25 (≈ 0.354 µM) | 0.25 (≈ 0.354 µM) | 1 (≈ 1.41 µM) | 0.25 (≈ 0.354 µM) | 6.1 | –
CC1(C)S[C@@H]2[C@H](NC(=O)[C@H](NC(=O)Nc3cnc(Nc4ccc(S(N)(=O)=O)cc4)nc3O)C3=CCC=CC3)C(=O)N2[C@H]1C(=O)O [Verbindung 12] | – | – | – | – | – | – | – | – | – | – | 5 | –
CN(C)S(=O)(=O)c1ccc(Nc2ncc(NC(=O)N[C@@H](C(=O)N[C@@H]3C(=O)N4[C@@H]3SC(C)(C)[C@@H]4C(=O)O)c3ccccc3)c(O)n2)cc1 [Verbindung 14] | – | – | – | – | – | – | – | – | – | – | 4.2 | 8.5
CCCCNS(=O)(=O)c1ccc(Nc2ncc(NC(=O)N[C@@H](C(=O)N[C@@H]3C(=O)N4[C@@H]3SC(C)(C)[C@@H]4C(=O)O)c3ccc(O)cc3)c(O)n2)cc1 [Verbindung 20] | – | – | – | – | – | – | – | – | – | – | 6.6 | –
CC1(C)SC2C(NC(=O)C(NC(=O)Nc3cnc(Nc4ccc(C(N)=O)cc4)nc3O)c3ccccc3)C(=O)N2C1C(=O)O (stereo not shown) [Verbindung 34] | 0.25 (≈ 0.403 µM) | 4 (≈ 6.44 µM) | 1 (≈ 1.61 µM) | 0.25 (≈ 0.403 µM) | 2 (≈ 3.22 µM) | 2 (≈ 3.22 µM) | 0.06 (≈ 0.0967 µM) | 0.25 (≈ 0.403 µM) | 2 (≈ 3.22 µM) | 0.25 (≈ 0.403 µM) | 3.2 | –
CC1(C)SC2C(NC(=O)C(NC(=O)Nc3cnc(Nc4ccc([N+](=O)[O-])cc4)nc3O)c3ccccc3)C(=O)N2C1C(=O)O (stereo not shown) [Verbindung 41] | 0.12 (≈ 0.193 µM) | 0.5 (≈ 0.803 µM) | 2 (≈ 3.21 µM) | 0.25 (≈ 0.402 µM) | 0.5 (≈ 0.803 µM) | 0.5 (≈ 0.803 µM) | 0.06 (≈ 0.0964 µM) | 0.12 (≈ 0.193 µM) | 2 (≈ 3.21 µM) | 0.25 (≈ 0.402 µM) | 8.3 | –
CC1(C)SC2C(NC(=O)C(NC(=O)Nc3cnc(Nc4ccc(NC(N)=O)cc4)nc3O)c3ccc(O)cc3)C(=O)N2C1C(=O)O (stereo not shown) [Verbindung 43] | 0.5 (≈ 0.767 µM) | 8 (≈ 12.3 µM) | 1 (≈ 1.53 µM) | 1 (≈ 1.53 µM) | 4 (≈ 6.14 µM) | 8 (≈ 12.3 µM) | 0.06 (≈ 0.0921 µM) | 0.5 (≈ 0.767 µM) | 1 (≈ 1.53 µM) | 0.5 (≈ 0.767 µM) | 5.6 | –
CC1(C)S[C@@H]2[C@H](NC(=O)C(NC(=O)Nc3cnc(Nc4ccc(C(N)=O)c(O)c4)nc3O)c3ccc(O)cc3)C(=O)N2[C@H]1C(=O)O (stereo partly shown) [Verbindung 50] | 0.25 (≈ 0.383 µM) | 2 (≈ 3.06 µM) | 1 (≈ 1.53 µM) | 0.5 (≈ 0.766 µM) | 2 (≈ 3.06 µM) | 2 (≈ 3.06 µM) | 0.06 (≈ 0.0919 µM) | 0.25 (≈ 0.383 µM) | 1 (≈ 1.53 µM) | 0.5 (≈ 0.766 µM) | 4 | –
CC1(C)S[C@@H]2[C@H](NC(=O)C(NC(=O)Nc3cnc(NCc4ccc(O)cc4)nc3O)c3ccc(O)cc3)C(=O)N2[C@H]1C(=O)O (stereo partly shown) [Verbindung 57] | 0.25 (≈ 0.401 µM) | 4 (≈ 6.41 µM) | 2 (≈ 3.21 µM) | 0.5 (≈ 0.802 µM) | 1 (≈ 1.6 µM) | 8 (≈ 12.8 µM) | 0.06 (≈ 0.0962 µM) | 1 (≈ 1.6 µM) | 1 (≈ 1.6 µM) | 0.25 (≈ 0.401 µM) | 7.2 | –
CC1(C)S[C@@H]2[C@H](NC(=O)C(NC(=O)Nc3cnc(NCc4ccccc4)nc3O)c3ccccc3)C(=O)N2[C@H]1C(=O)O (stereo partly shown) [Verbindung 61] | 0.25 (≈ 0.423 µM) | 1 (≈ 1.69 µM) | 2 (≈ 3.38 µM) | 0.5 (≈ 0.845 µM) | 1 (≈ 1.69 µM) | 2 (≈ 3.38 µM) | 0.25 (≈ 0.423 µM) | 0.5 (≈ 0.845 µM) | 2 (≈ 3.38 µM) | 0.25 (≈ 0.423 µM) | – | –

Reference: EP0051773A1, “Penicillins, their salts, process for their preparation and pharmaceutical compositions containing them” (Dr. Karl Thomae GmbH, priority 1980, dated 1982)
